A short description of one series: Plasma stability assay. It is filed as in vitro ADME, human. As to the method: The plasma stability property of early drug discovery compounds can influence the in vivo efficacy of the test compounds/drugs. Human and/or mouse plasma degradation is determined using multiple time points to monitor the rate of disappearance of the parent compound during incubation.
Sample preparation for plasma stability was modified from Di et al. (2005) Int. J. Pharm. 297(1-2): 110-119. A set of incubation times of 0, 3, 24, and 48 hour were used. DMSO stock solutions of test compounds were prepared at 10 mM concentration. 1.8 μL of each test compound was each added directly to 1.8 mL of human/mouse plasma to get the final concentration of 10 μM. This compound/matrix was mixed and 70 μL was transferred to 8 time points plates (each in triplicate wells). For the Time 0 plate, 210 μL of cold acetonitrile with internal standard (4 μg/mL warfarin) was added to each well and no incubation needed. For other seven time points' plate, the plate was incubated at 37° C. for required time, followed by quenching of the reaction by adding 210 μL of cold acetonitrile with internal standard (4 μg/ml warfarin) to each well. All of the plates were sealed and mixed well at 600 rpm for 10 min and were centrifuged at 4000 rpm for 20 min. The supernatants (120 μL) were transferred to analytical plates for analysis by LCMS. Conditions for Waters ACQUITY-UPLC-MS-UV system was described separately. The plasma stability was evaluated via the half-life from least-squares fit of the multiple time points based on first-order kinetics.

The nature of series [1]: Microsomal metabolic stability. It is filed as in vitro ADME, mouse. The procedure: Compounds were initially prepared by dissolving them into DMSO at a final concentration of 10 mM. NADPH regenerating solutions A and B and mouse liver microsomes (CD-1) were obtained from BD Gentest (Woburn, Mass.). Ninety-six well deep well plates were obtained from MidWest Scientific Inc (Valley Park, Mo.).
Sample preparation for microsomal stability was modified from methods of Di, L., et al., Int J Pharm. 2005 Jun. 13; 297(1-2):110-9. A set of incubation times of 0, 15, 30, 60, 120, and 240 minutes were used. Mouse liver microsomal solutions were prepared by adding 58 μL of concentrated human or mouse liver microsomes (20 mg/mL protein concentration) to 1.756 mL of 0.1 M potassium phosphate buffer (pH 7.4) and 5 μL of 0.5 M EDTA to make a 0.6381 mg/mL (protein) microsomal solution. NADPH regenerating agent contained 113 μL of NADPH A, 23 μL of NADPH B, and 315 μL of 0.1 M potassium phosphate buffer (pH 7.4). The diluted test compound solutions (2 μL) were each added directly to a 1.79 mL of liver microsomal solution. This solution was mixed and 90 μL was transferred to 6 time points plates (each in triplicate wells). For the time 0 plate, 225 μL of cold acetonitrile with internal standard ([…] warfarin) was added to each well, followed by addition of NADPH regenerating agent (22.5 μL) and no incubation. For other five time points' plate, NADPH regenerating agent (22.5 μL) was added to each well to initiate the reaction. The plates were incubated at 37° C. for the required time, followed by quenching of the reaction by adding 225 μL of cold acetonitrile with internal standard (4 μg/ml warfarin). All of the plates were sealed and mixed well at 600 rpm for 10 minutes followed by centrifugation at 4000 rpm for 20 minutes. The supernatants (120 μL) were transferred to analytical plates for analysis by LCMS. LCMS conditions were described in the materials and instrumentation section above. The metabolic stability is evaluated via the half-life from least-squares fit of the multiple time points based on first-order kinetics.

[2] abbreviates: plasma stability half-life, human plasma, 37° C.
[3] abbreviates: microsomal metabolic stability half-life, mouse liver microsomes.

Numbered stars: 1 amine (or outer) side, 2 acyl side, 3 side chain; on linkers, the order of the positions; unused ones are H or OH. Bridge positions count the residues as written; N and C are the ends. Square brackets hold non-standard residues; d marks the D form. Peptide text beside a SMILES is read from it. * marks the point of attachment. X5 = O=C([C@@H]1C[C@@H](OP(=O)(O)O)CN1[*:1])[*:2]; X6 = O=C([C@@H]1CS(=O)(=O)CCN1[*:1])[*:2]; Phe(3-Me) = Cc1cccc(C[C@H](N)C(=O)O)c1; Pro(4S-Me) = C[C@@H]1CN[C@H](C(=O)O)C1; NH(4-Cl-2-F-phenyl) = Fc1cc(Cl)ccc1N*; Pro(4R-Me) = C[C@H]1CN[C@H](C(=O)O)C1; Hyp = O=C(O)[C@@H]1C[C@@H](O)CN1; NH(4-Me-phenyl) = Cc1ccc(N*)cc1; aThr = C[C@H](O)[C@H](N)C(=O)O; Pip = O=C(O)[C@@H]1CCCCN1; X3 = c1cc2c(cc1N*)OCCO2; CO = O=C([*:1])[*:2]; X2 = Fc1cc(N*)ccc1Cl

`Cc1ccc(NC(=O)N[C@@H](Cc2cccc(C)c2)C(=O)N[C@H]2COC(=O)[C@@H]3CCCN3C(=O)[C@H](C)NC(=O)[C@@H]3CCCCN3C(=O)[C@@H]3C[C@@H](O)CN3C2=O)cc1` [Compound 49, (S)—N-((6S,8AS,14AS,16R,20S,23AS)-16-HYDROXY-6-METHYL-5,8,14,19,23-PENTAOXOOCTADECAHYDRO-1H,5H,14H,19H-PYRIDO[2,1-I]DIPYRROLO[2,1-C:2′,1′-L][1]OXA[4,7,10,13]TETRAAZACYCLOHEXADECIN-20-YL)-3-(M-TOLYL)-2-(3-(P-TOLYL)UREIDO)PROPANAMIDE]: the “Human” value in “Plasma stability assay” (setting [2]) came out at 29.79 h. In addition, the “Mouse” value in series [1] (setting [3]) is 4.37 ± .373 h.

For the molecule `Cc1cccc(C[C@H](NC(=O)Nc2ccc(Cl)cc2F)C(=O)N[C@@H]2C(=O)N3C[C@H](OP(=O)(O)O)C[C@H]3C(=O)N3CCCC[C@H]3C(=O)N[C@@H](C)C(=O)N3C[C@H](C)C[C@H]3C(=O)O[C@H]2C)c1` [Compound 29, (2R,6S,8AS,14AS,16R,20S,21S,23AS)-20-((S)-2-(3-(4-CHLORO-2-FLUOROPHENYL)UREIDO)-3-(M-TOLYL)PROPANAMIDO)-2,6,21-TRIMETHYL-5,8,14,19,23-PENTAOXOOCTADECAHYDRO-1H,5H,14H,19H-PYRIDO[2,1-I]DIPYRROLO[2,1-C:2′,1′-L][1]OXA[4,7,10,13]TETRAAZACYCLOHEXADECIN-16-YL DIHYDROGEN PHOSPHATE] ({NH(4-Cl-2-F-phenyl)-CO}-[Phe(3-Me)][aThr][X5][Pip]A[Pro(4R-Me)]; ester 2-C), in the series “Plasma stability assay” (setting [2]), the “Human” value is above 50 h. Further, in series [1] (setting [3]), the “Mouse” value was above 4 h.

On to `Cc1cccc(C[C@H](NC(=O)Nc2ccc3c(c2)OCCO3)C(=O)N[C@@H]2C(=O)N3CCC[C@H]3C(=O)N3CCCC[C@H]3C(=O)N[C@@H](C)C(=O)N3C[C@H](C)C[C@H]3C(=O)O[C@H]2C)c1` [Compound 21, (S)-2-(3-(2,3-DIHYDROBENZO[B][1,4]DIOXIN-6-YL)UREIDO)-3-(M-TOLYL)-N-((2R,6S,8AS,14AS,20S,21S,23AS)-2,6,21-TRIMETHYL-5,8,14,19,23-PENTAOXOOCTADECAHYDRO-1H,5H,14H,19H-PYRIDO[2,1-I]DIPYRROLO[2,1-C:2′,1′-L][1]OXA[4,7,10,13]TETRAAZACYCLOHEXADECIN-20-YL)PROPANAMIDE] ({X3-CO}-[Phe(3-Me)][aThr]P[Pip]A[Pro(4R-Me)]; ester 2-C), for which the “Human” value in the series “Plasma stability assay” (human, 10 μM) is above 50 h. Besides, in series [1] (CD-1, mouse, pH 7.4), the “Mouse” value is 3.38 ± 0.37 h.

For `Cc1ccc(NC(=O)N[C@@H](Cc2cccc(C)c2)C(=O)N[C@@H]2C(=O)N3CCC[C@H]3C(=O)N3CCCC[C@H]3C(=O)N[C@@H](C)C(=O)N3C[C@@H](C)C[C@H]3C(=O)O[C@H]2C)cc1` [Compound 45, (S)-3-(M-TOLYL)-2-(3-(P-TOLYL)UREIDO)-N-((2S,6S,8AS,14AS,20S,21S,23AS)-2,6,21-TRIMETHYL-5,8,14,19,23-PENTAOXOOCTADECAHYDRO-1H,5H,14H,19H-PYRIDO[2,1-I]DIPYRROLO[2,1-C:2′,1′-L][1]OXA[4,7,10,13]TETRAAZACYCLOHEXADECIN-20-YL)PROPANAMIDE] ({NH(4-Me-phenyl)-CO}-[Phe(3-Me)][aThr]P[Pip]A[Pro(4S-Me)]; ester 2-C), the “Human” value in the series “Plasma stability assay” (setting [2]) was above 50 h. Moreover, the “Mouse” value in series [1] (setting [3]) came to 2.35 ± 0.14 h.

Turning to `Cc1ccc(NC(=O)N[C@@H](Cc2cccc(C)c2)C(=O)N[C@@H]2C(=O)N3C[C@H](O)C[C@H]3C(=O)N3CCCC[C@H]3C(=O)N[C@@H](C)C(=O)N3C[C@H](C)C[C@H]3C(=O)O[C@H]2C)cc1` [Compound 26, (S)—N-((2R,6S,8AS,14AS,16R,20S,21S,23AS)-16-HYDROXY-2,6,21-TRIMETHYL-5,8,14,19,23-PENTAOXOOCTADECAHYDRO-1H,5H,14H,19H-PYRIDO[2,1-I]DIPYRROLO[2,1-C:2′,1′-L][1]OXA[4,7,10,13]TETRAAZACYCLOHEXADECIN-20-YL)-3-(M-TOLYL)-2-(3-(P-TOLYL)UREIDO)PROPANAMIDE] ({NH(4-Me-phenyl)-CO}-[Phe(3-Me)][aThr][Hyp][Pip]A[Pro(4R-Me)]; ester 2-C), the “Human” value in the series “Plasma stability assay” (setting [2]) was above 50 h. For the same molecule, in series [1] (setting [3]), the “Mouse” value is 2.49 ± 0.35 h.

Take `Cc1cccc(C[C@H](NC(=O)Nc2ccc3c(c2)OCCO3)C(=O)N[C@H]2COC(=O)[C@@H]3C[C@@H](C)CN3C(=O)[C@H](C)NC(=O)[C@@H]3CCCCN3C(=O)[C@@H]3CCCN3C2=O)c1` [Compound 22, (S)-2-(3-(2,3-DIHYDROBENZO[B][1,4]DIOXIN-6-YL)UREIDO)-N-((2R,6S,8AS,14AS,20S,23AS)-2,6-DIMETHYL-5,8,14,19,23-PENTAOXOOCTADECAHYDRO-1H,5H,14H,19H-PYRIDO[2,1-I]DIPYRROLO[2,1-C:2′,1′-L][1]OXA[4,7,10,13]TETRAAZACYCLOHEXADECIN-20-YL)-3-(M-TOLYL)PROPANAMIDE]: the “Human” value in the series “Plasma stability assay” (human, 10 μM) was above 50 h. Also, in series [1] (CD-1, mouse, pH 7.4), the “Mouse” value was 4.48 ± 0.61 h.

With `Cc1cccc(C[C@H](NC(=O)Nc2ccc(Cl)c(F)c2)C(=O)N[C@@H]2C(=O)N3CCC[C@H]3C(=O)N3CCCC[C@H]3C(=O)N[C@@H](C)C(=O)N3C[C@H](C)C[C@H]3C(=O)O[C@H]2C)c1` [Compound 35, (S)-2-(3-(4-CHLORO-3-FLUOROPHENYL)UREIDO)-3-(M-TOLYL)-N-((2R,6S,8AS,14AS,20S,21S,23AS)-2,6,21-TRIMETHYL-5,8,14,19,23-PENTAOXOOCTADECAHYDRO-1H,5H,14H,19H-PYRIDO[2,1-I]DIPYRROLO[2,1-C:2′,1′-L][1]OXA[4,7,10,13]TETRAAZACYCLOHEXADECIN-20-YL)PROPANAMIDE] ({X2-CO}-[Phe(3-Me)][aThr]P[Pip]A[Pro(4R-Me)]; ester 2-C), in “Plasma stability assay” (human, 10 μM), the “Human” value is above 50 h. In series [1] (CD-1, mouse, pH 7.4), the “Mouse” value was 1.54 ± .545 h.

In the case of `Cc1ccc(NC(=O)N[C@@H](Cc2cccc(C)c2)C(=O)N[C@H]2COC(=O)[C@@H]3C[C@H](C)CN3C(=O)[C@H](C)NC(=O)[C@@H]3CCCCN3C(=O)[C@@H]3CCCN3C2=O)cc1` (stereo in doubt) [Compound 43, (S)—N-((2S,6S,8AS,14AS,20S,23AS)-2,6-DIMETHYL-5,8,14,19,23-PENTAOXOOCTADECAHYDRO-1H,5H,14H,19H-PYRIDO[2,1-I]DIPYRROLO[2,1-C:2′,1′-L][1]OXA[4,7,10,13]TETRAAZACYCLOHEXADECIN-20-YL)-3-(M-TOLYL)-2-(3-(P-TOLYL)UREIDO)PROPANAMIDE], the “Human” value in “Plasma stability assay” (setting [2]) is above 50 h. The “Mouse” value in series [1] (setting [3]) is 3.57 ± 0.3 h.

`Cc1cccc(C[C@H](NC(=O)Nc2ccc(Cl)cc2F)C(=O)N[C@@H]2C(=O)N3CCC[C@H]3C(=O)N3CCS(=O)(=O)C[C@H]3C(=O)N[C@@H](C)C(=O)N3C[C@H](C)C[C@H]3C(=O)O[C@H]2C)c1` [Compound 40, (S)-2-(3-(4-CHLORO-2-FLUOROPHENYL)UREIDO)-3-(M-TOLYL)-N-((6AS,12S,13S,15AS,17R,21S,23AR)-13,17,21-TRIMETHYL-2,2-DIOXIDO-6,11,15,20,23-PENTAOXOOCTADECAHYDRO-6H,11H,15H-DIPYRROLO[2,1-C:2′,1′-L][1,4]THIAZINO[3,4-I][1]OXA[4,7,10,13]TETRAAZACYCLOHEXADECIN-12-YL)PROPANAMIDE] ({NH(4-Cl-2-F-phenyl)-CO}-[Phe(3-Me)][aThr]P[X6]A[Pro(4R-Me)]; ester 2-C): in “Plasma stability assay” (human, 10 μM), the “Human” value is above 50 h. Moreover, the “Mouse” value in series [1] (CD-1, mouse, pH 7.4) was 6.54 ± .543 h.

The values above are taken from US10570179B2, “Substituted urea depsipeptide analogs as activators of the CLPP endopeptidase” (priority 2016, dated 2020).
